Laboratory results published in patent publication US10351522B2, “Sulfonamide derivative and pharmaceutically acceptable acid addition salt thereof” (UNIVERSITY OF TSUKUBA, priority 2015, dated 2019).
Read-outs that look alike come from different tables or passages of the source.

Columns and labels:
[1] = biological target: T1, human OX1R (Homo sapiens, UniProt O43613); assay: Agonist activity against OX1R: intracellular calcium (Fura-2AM, FDSS7000) in CHOOX1R cells; format: cell-based; conditions: for Emax at 0.1 µM / Emax at 1 µM / Emax at 10 µM: read-out: Response (%) OX1R
T1 construct: expressed in transfected cells; host or cells: CHO (Chinese hamster ovary) cells, line CHOOX1R, co-expressing NFAT-luciferase
T1 sequence (O43613 1-425): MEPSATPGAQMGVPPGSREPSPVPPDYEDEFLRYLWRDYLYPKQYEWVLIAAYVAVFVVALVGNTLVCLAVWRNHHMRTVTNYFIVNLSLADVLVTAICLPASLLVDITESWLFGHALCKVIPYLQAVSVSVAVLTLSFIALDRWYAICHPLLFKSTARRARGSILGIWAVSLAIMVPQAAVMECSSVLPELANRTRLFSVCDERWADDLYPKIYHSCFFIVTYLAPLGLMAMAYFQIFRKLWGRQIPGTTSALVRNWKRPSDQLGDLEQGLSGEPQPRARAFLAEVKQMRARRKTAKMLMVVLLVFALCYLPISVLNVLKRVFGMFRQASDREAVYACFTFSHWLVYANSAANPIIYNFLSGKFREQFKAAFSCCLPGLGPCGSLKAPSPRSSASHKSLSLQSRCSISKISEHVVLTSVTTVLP
Experimental: (§1) Evaluation of Agonist Activity Against OX1R and OX2R
(§2) NAFT-luciferase gene and human OX1R gene were constitutively expressed in CHO cell, which is a cell line derived from Chinese hamster ovary to establish a cell line (CHOOX1R) and NAFT-luciferase gene and human OX2R gene were constitutively expressed in CHO cell to establish a cell line (CHOOX2R). The respective cells were seeded in a 96-well Multiplate at 10,000 cells/well and cultured in a 5% FBS (Thermo Scientific)-added DMEM medium (Sigma-Aldrich) for 48 hr. The medium was removed, an assay buffer (20 mM HEPES (Sigma-Aldrich), Hanks' balanced salt solution (Gibco), 0.1% BSA (Sigma-Aldrich), 2.5 mM probenecid acid (Wako Pure Chemical Industries, Ltd.)) (100 μL) containing 5 μM Fura-2AM (Cayman Chemical) was added, and the cells were incubated for 60 min. The buffer containing Fura-2AM was removed, and an assay buffer (75 μL) was added. An assay buffer (25 μL) containing a test compound was added thereto to start the reaction. Changes in the intracellular calcium ion concentration due to the reaction were measured by measuring the fluorescence intensity ratio by dual wavelength excitation at 340 and 380 nm, by using FDSS7000 (Hamamatsu Photonics K.K.). The test compound was dissolved in DMSO to 10 mM, and diluted with the assay buffer to a final concentration of 10^−7M to 10^−5M (final concentration of DMSO 1%).
(§3) (As used herein, Response in Table 21 to Table 27 is a value obtained by dividing the agonist activity value, when the test compound is evaluated with orexin-A as a full-agonist (maximum value of agonist activity: 100%), at 10 μM, 1.0 μM, 0.1 μM by the agonist activity value of orexin-A.)

[2] = biological target: T2, human OX2R (Homo sapiens, UniProt O43614); assay: Agonist activity against OX2R: intracellular calcium (Fura-2AM, FDSS7000) in CHOOX2R cells; format: cell-based; conditions: relative to orexin-A as full agonist (100%)
T2 construct: expressed in transfected cells; host or cells: CHO (Chinese hamster ovary) cells, line CHOOX2R, co-expressing NFAT-luciferase
T2 sequence (O43614 1-444): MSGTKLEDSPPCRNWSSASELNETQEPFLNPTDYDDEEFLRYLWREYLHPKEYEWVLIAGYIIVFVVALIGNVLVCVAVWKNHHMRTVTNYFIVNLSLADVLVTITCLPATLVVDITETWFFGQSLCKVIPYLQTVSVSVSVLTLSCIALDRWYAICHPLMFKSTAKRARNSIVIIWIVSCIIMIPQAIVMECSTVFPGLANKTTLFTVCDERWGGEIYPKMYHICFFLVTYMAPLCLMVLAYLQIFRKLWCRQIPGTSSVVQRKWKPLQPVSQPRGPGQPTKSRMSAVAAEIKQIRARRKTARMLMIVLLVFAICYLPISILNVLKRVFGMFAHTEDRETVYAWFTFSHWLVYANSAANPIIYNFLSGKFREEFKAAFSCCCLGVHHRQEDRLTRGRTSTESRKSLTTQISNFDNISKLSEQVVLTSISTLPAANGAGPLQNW
Experimental: as §1, §2, §3

[3] = test compound 0.1 μM, relative to orexin-A as full agonist (100%)
[4] = test compound 1.0 μM, relative to orexin-A as full agonist (100%)
[5] = test compound 10 μM, relative to orexin-A as full agonist (100%)
[6] = 0.1 μM test compound, relative to orexin-A as full agonist (100%)
[7] = 1.0 μM test compound, relative to orexin-A as full agonist (100%)
[8] = 10 μM test compound, relative to orexin-A as full agonist (100%)

Row | SMILES | Response (%) OX1R [1, 3] [%] | Response (%) OX1R [1, 4] [%] | Response (%) OX1R [1, 5] [%] | Response (%) OX2R ([2]; test compound 0.1 μM) [%] | Response (%) OX2R ([2]; test compound 1.0 μM) [%] | Response (%) OX2R ([2]; test compound 10 μM) [%] | Response (%) OX2R ([2]; 0.1 μM test compound) [%] | Response (%) OX2R ([2]; 1.0 μM test compound) [%] | Response (%) OX2R ([2]; 10 μM test compound) [%] | further results
1 | COc1ccc(-c2cccc(C(=O)N(C)C)c2)cc1S(=O)(=O)Nc1cccc(N=Nc2ccc(O)cc2NC(=O)OC(C)(C)C)c1 [Example 98] | 8 | 8 | 9 | 13 | 11 | 67 | – | – | – | –
2 | COc1ccc(-c2cccc(C(=O)N(C)C)c2)cc1S(=O)(=O)Nc1cccc(NS(=O)(=O)Nc2cccc(C)c2)c1 [Example 90] | <5 | <5 | <5 | <5 | 56 | 89 | – | – | – | –
3 | COc1ccc(C(=O)NCc2cccnc2)cc1S(=O)(=O)Nc1cccc(NC(=O)Nc2cccc(N(C)C)c2)c1 [Example 103] | <5 | <5 | <5 | 4 | 27 | 84 | – | – | – | –
4 | COc1ccc(-c2cccc(C(=O)N(C)C)c2)cc1S(=O)(=O)Nc1cccc(Nc2c(Nc3ccc(C)cc3)c(=O)c2=O)c1 [Example 84] | <5 | <5 | 10 | 6 | 6 | 21 | – | – | – | –
5 | COc1ccc(-c2cccc(C(=O)N(C)C)c2)cc1S(=O)(=O)Nc1cccc(NCc2ccccc2O)c1 [Example 26] | – | – | – | – | – | – | <5 | 51 | 101 | Response (%) OX1R [1, 6]: <5%; Response (%) OX1R [1, 7]: <5%; Response (%) OX1R [1, 8]: 9%
6 | COc1ccc(-c2cccc(C(=O)N(C)C)c2)cc1S(=O)(=O)Nc1cccc(NC(=O)Nc2cccc(NC(=N)N)c2)c1 [Example 65] | – | – | – | – | – | – | <5 | <5 | 6 | Response (%) OX1R [1, 6]: <5%; Response (%) OX1R [1, 7]: <5%; Response (%) OX1R [1, 8]: <5%
7 | COc1ccc(-c2cccc(C(=O)N(C)C)c2)cc1S(=O)(=O)Nc1cccc(NS(=O)(=O)c2cccc(Br)c2)c1 [Example 86] | <5 | <5 | <5 | <5 | <5 | 11 | – | – | – | –
8 | COc1ccc(-c2cccc(C(=O)N(C)C)c2)cc1S(=O)(=O)Nc1cccc(NC(=N)Nc2ccccc2)c1 [Example 77, 4′-methoxy-N,N-dimethyl-3′-(N-(3-(3-phenylguanidino)phenyl)sulfamoyl)-[1,1′-biphenyl]-3-carboxamide] | – | – | – | – | – | – | <5 | 51 | 99 | Emax at 0.1 µM [1, 6]: < 5%; Emax at 1 µM [1, 7]: < 5%; Emax at 10 µM [1, 8]: < 5%
9 | COc1ccc(-c2cccc(C(=O)N(C)C)c2)cc1S(=O)(=O)Nc1cccc(NC(=O)Nc2cccs2)c1 [Example 67] | – | – | – | – | – | – | 15 | 83 | 103 | Response (%) OX1R [1, 6]: 6%; Response (%) OX1R [1, 7]: 8%; Response (%) OX1R [1, 8]: 9%
10 | COc1ccc(C(=O)NCc2ccccc2)cc1S(=O)(=O)Nc1cccc(NC(=O)Nc2ccc(N(C)C)cc2)c1 [Example 108, N-benzyl-3-(N-(3-(3-(4-(dimethylamino)phenyl)ureido)phenyl)sulfamoyl)-4-methoxybenzamide] | – | – | – | 6 | 6 | 24 | – | – | – | Emax at 0.1 µM [1, 3]: < 5%; Emax at 1 µM [1, 4]: < 5%; Emax at 10 µM [1, 5]: < 5%
11 | COc1ccc(-c2cccc(C(=O)N(C)C)c2)cc1S(=O)(=O)Nc1cccc(NC(=O)Nc2cccc(N(C)C)c2)c1OC [Example 123, 3′-(N-(3-(3-(3-(dimethylamino)phenyl)ureido)-2-methoxyphenyl)sulfamoyl)-4′-methoxy-N,N-dimethyl-[1,1′-biphenyl]-3-carboxamide] | – | – | – | 63 | 111 | 111 | – | – | – | Emax at 0.1 µM [1]: < 5%; Emax at 1 µM [1]: 6%; Emax at 10 µM [1]: < 5%
12 | COc1ccc(-c2cccc(C(=O)N(C)C)c2)cc1S(=O)(=O)Nc1cccc(NC(=S)Nc2ccccc2)c1 [Example 75, 4′-methoxy-N,N-dimethyl-3′-(N-(3-(3-phenylthioureido)phenyl)sulfamoyl)-[1,1′-biphenyl]-3-carboxamide] | – | – | – | – | – | – | 61 | 94 | 95 | Emax at 0.1 µM [1, 6]: < 5%; Emax at 1 µM [1, 7]: < 5%; Emax at 10 µM [1, 8]: 30%
13 | COc1ccc(-c2cccc(C(=O)N(C)C)c2)cc1S(=O)(=O)Nc1cccc(/N=N/c2ccc(N(C)C)cc2CO)c1 [Example 97, (E)-3′-(N-(3-((4-(dimethylamino)-2-(hydroxymethyl)phenyl)diazenyl)phenyl)sulfamoyl)-4′-methoxy-N,N-dimethyl-[1,1-biphenyl]-3-carboxamide] | – | – | – | 25 | 84 | 108 | – | – | – | Emax at 0.1 µM [1, 3]: < 5%; Emax at 1 µM [1, 4]: < 5%; Emax at 10 µM [1, 5]: 11%
14 | COc1ccc(C(=O)N(C)C)cc1S(=O)(=O)Nc1cccc(NC(=O)Nc2ccccc2N(C)C)c1 [Example 114] | <5 | <5 | <5 | <5 | <5 | 28 | – | – | – | –
